Assay results published in patent US11092532B2, “Method and device for label-free, high throughput holographic screening and enumeration of tumor cells in blood” (Texas Tech University System, priority 2017, dated 2021).

Assays:
[1] = tested on: breast cancer cell line MCF-7; experiment: dose-dependent cytotoxicity, viability analysis using standard epifluorescence microscopy; assay type: cell-based; conditions: FIG. 8B
breast cancer cells MCF7 = experiment: inline-DHM cytometry for drug response analysis; assay type: cell-based

With `COc1cccc2c1C(=O)c1c(O)c3c(c(O)c1C2=O)C[C@@](O)(C(=O)CO)C[C@@H]3O[C@H]1C[C@H](N)[C@H](O)[C@H](C)O1` [doxorubicin] the “cytotoxicity (viability of cells)” value [1] was “dose-dependent cytotoxicity”, the “maximum intensity (Imax) distribution of focused cell image” value (shortened to “maximum intensity (Imax) distribution”) (breast cancer cells MCF7; MCF-7 cells treated with 0.0001 μM doxorubicin, FIG. 9B) was “some are affected and their peak intensity shifts to lower values” and the “maximum intensity (Imax) distribution” value (breast cancer cells MCF7; MCF-7 cells treated with 0.01 μM doxorubicin, FIG. 9C) was “the number of cells showing lower intensity (Imax) increases”. The “maximum intensity (Imax) distribution” value (breast cancer cells MCF7; MCF-7 cells treated with 0.1 μM doxorubicin, FIG. 9D) was “the number of cells showing lower intensity (Imax) increases”.
